According to ChEMBL document CHEMBL1201862, “PubChem BioAssay data set” (2004):
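Grown in 96-well plates, cells were treated for 48 hours with each compound at five concentrations. Insufficient inhibition: endpoint recorded as highest concentration tested. Abbreviation: GI50, concentration required for 50% inhibition of growth.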 Calls of active or inactive are those of the source. Rule as the data show it: active = GI50 up to about 1.1 µM and inactive = higher.

Key:
Experiment in all cases: growth of human tumour cells (NCI), 48 h
CCRF-CEM = test system: CCRF-CEM
COLO 205 = test system: COLO 205
HCC 2998 = test system: HCC 2998
HCT-15 = test system: HCT-15
HL-60 = test system: HL-60
K562 = test system: K562
KM12 = test system: KM12
LOX IMVI = test system: LOX IMVI
MOLT-4 = test system: MOLT-4
NCI-H23 = test system: NCI-H23
OVCAR-4 = test system: OVCAR-4
OVCAR-8 = test system: OVCAR-8
SF-268 = test system: SF-268
SK-MEL-2 = test system: SK-MEL-2
SK-OV-3 = test system: SK-OV-3
SW-620 = test system: SW-620
U-251 = test system: U-251
HCT-116 = test system: HCT-116
HOP-62 = test system: HOP-62
SF-539 = test system: SF-539

C=CC(C)C1(CCCOCc2ccccc2)C(=S)N2CCC3(CC24CCCC14)OCCO3 (stereo unspecified)
GI50 (CCRF-CEM): 6.41 µM (inactive) | GI50 (COLO 205): 28.5 µM (inactive) | GI50 (HCC 2998): 56.1 µM (inactive) | GI50 (HCT-15): > 100 µM | GI50 (HL-60): 1.9 µM (inactive) | GI50 (K562): 4.84 µM (inactive) | GI50 (KM12): 12.9 µM (inactive) | GI50 (LOX IMVI): 54.3 µM (inactive) | GI50 (MOLT-4): 3.93 µM (inactive) | GI50 (NCI-H23): 6.1 µM (inactive) | GI50 (OVCAR-4): 9.46 µM (inactive) | GI50 (OVCAR-8): 23.3 µM (inactive) | GI50 (SF-268): 5.93 µM (inactive) | GI50 (SK-MEL-2): 12.2 µM (inactive) | GI50 (SK-OV-3): > 100 µM (inactive) | GI50 (SW-620): 31.6 µM (inactive) | GI50 (U-251): 34.1 µM (inactive)

C[C@H](O)C(=O)SC[C@H](NC(=O)CC[C@@H](N)C(=O)O)C(=O)NCC(=O)O
GI50 (CCRF-CEM): > 100 µM (inactive) | GI50 (COLO 205): > 100 µM (inactive) | GI50 (HCC 2998): > 100 µM (inactive) | GI50 (HCT-116): > 100 µM (inactive) | GI50 (HCT-15): > 100 µM | GI50 (HL-60): > 10 µM (inactive) | GI50 (HOP-62): > 100 µM (inactive) | GI50 (K562): > 100 µM (inactive) | GI50 (KM12): > 100 µM (inactive) | GI50 (LOX IMVI): > 100 µM (inactive) | GI50 (MOLT-4): > 100 µM (inactive) | GI50 (NCI-H23): > 100 µM (inactive) | GI50 (OVCAR-4): > 100 µM (inactive) | GI50 (OVCAR-8): > 100 µM (inactive) | GI50 (SF-268): > 100 µM (inactive) | GI50 (SK-MEL-2): > 100 µM (inactive) | GI50 (SK-OV-3): > 100 µM (inactive) | GI50 (SW-620): > 100 µM (inactive) | GI50 (U-251): > 100 µM (inactive)

COC(=O)C(=O)Cc1nc2ccccc2o1
GI50 (CCRF-CEM): > 100 µM (inactive) | GI50 (HCC 2998): > 100 µM (inactive) | GI50 (HCT-116): > 100 µM (inactive) | GI50 (HCT-15): > 100 µM | GI50 (HL-60): > 100 µM (inactive) | GI50 (HOP-62): > 100 µM (inactive) | GI50 (K562): > 100 µM (inactive) | GI50 (KM12): > 100 µM (inactive) | GI50 (LOX IMVI): > 100 µM (inactive) | GI50 (MOLT-4): > 100 µM (inactive) | GI50 (NCI-H23): > 100 µM (inactive) | GI50 (OVCAR-4): > 100 µM (inactive) | GI50 (SF-268): > 100 µM (inactive) | GI50 (SF-539): > 100 µM (inactive) | GI50 (SK-MEL-2): > 100 µM (inactive) | GI50 (SK-OV-3): > 100 µM (inactive) | GI50 (U-251): > 100 µM (inactive)

O=C1c2ccccc2C(=O)N1/N=C1/SC(=N\c2ccccc2)/C(=N/c2ccccc2)N1c1ccccc1
GI50 (CCRF-CEM): > 51.3 µM (inactive) | GI50 (COLO 205): > 85.3 µM (inactive) | GI50 (HCC 2998): > 48.5 µM (inactive) | GI50 (HCT-116): 38.6 µM (inactive) | GI50 (HCT-15): > 47.5 µM | GI50 (HL-60): > 40.4 µM (inactive) | GI50 (HOP-62): > 45.6 µM (inactive) | GI50 (K562): > 60 µM (inactive) | GI50 (KM12): > 38.8 µM (inactive) | GI50 (LOX IMVI): > 100 µM (inactive) | GI50 (MOLT-4): > 65.8 µM (inactive) | GI50 (NCI-H23): > 46.8 µM (inactive) | GI50 (OVCAR-4): > 100 µM (inactive) | GI50 (OVCAR-8): 40.1 µM (inactive) | GI50 (SF-268): > 100 µM (inactive) | GI50 (SF-539): 33.2 µM (inactive) | GI50 (SK-MEL-2): > 55.2 µM (inactive) | GI50 (SW-620): > 61.7 µM (inactive) | GI50 (U-251): 24.9 µM (inactive)

Fc1ccc2c(c1)SC1=Nc3sc4cc(F)ccc4[n+]3CN12
GI50 (COLO 205): 26.9 µM (inactive) | GI50 (HCC 2998): 10.5 µM (inactive) | GI50 (HCT-116): 22.5 µM (inactive) | GI50 (HCT-15): 29.5 µM | GI50 (HL-60): < 0.01 µM (active) | GI50 (HOP-62): 19.5 µM (inactive) | GI50 (K562): 14.3 µM (inactive) | GI50 (LOX IMVI): 18.4 µM (inactive) | GI50 (NCI-H23): 17.5 µM (inactive) | GI50 (OVCAR-4): 14.5 µM (inactive) | GI50 (OVCAR-8): 14.6 µM (inactive) | GI50 (SF-268): 29.6 µM (inactive) | GI50 (SF-539): 12.7 µM (inactive) | GI50 (SK-MEL-2): 21.4 µM (inactive) | GI50 (SK-OV-3): 22.4 µM (inactive) | GI50 (SW-620): 27.3 µM (inactive) | GI50 (U-251): 16.7 µM (inactive)

CCO[C@]12C[C@H](OC)[C@@]3(O)CC(C1[C@H]3O)C13C4C2[C@H](OC)C1[C@](COC)(CN4CC)[C@H](O)C[C@@H]3OC (stereo partly specified)
GI50 (CCRF-CEM): > 100 µM (inactive) | GI50 (COLO 205): > 100 µM (inactive) | GI50 (HCC 2998): > 100 µM (inactive) | GI50 (HCT-116): > 100 µM (inactive) | GI50 (HCT-15): > 100 µM | GI50 (HL-60): > 100 µM (inactive) | GI50 (HOP-62): > 100 µM (inactive) | GI50 (K562): > 100 µM (inactive) | GI50 (LOX IMVI): > 100 µM (inactive) | GI50 (MOLT-4): > 100 µM (inactive) | GI50 (NCI-H23): > 100 µM (inactive) | GI50 (OVCAR-4): > 100 µM (inactive) | GI50 (OVCAR-8): > 100 µM (inactive) | GI50 (SF-268): > 100 µM (inactive) | GI50 (SF-539): > 100 µM (inactive) | GI50 (SK-OV-3): > 100 µM (inactive) | GI50 (SW-620): > 100 µM (inactive)
